Assay [1] concerns the target purified human plasma kallikrein (Homo sapiens (Human), UniProt P03952). Kind of assay: Plasma kallikrein enzyme inhibition assay (chromogenic substrate S-2302). In kind it is biochemical.
Assay [2] concerns the target purified human Factor XIa (Homo sapiens (Human), UniProt P03951). Kind of assay: Factor XIa enzyme inhibition assay (chromogenic substrate S-2366).
[3] abbreviates: read-out: Factor XIa Ki, measured at 25° C.
Setting [4] is: measured at 25° C. (no asterisk).

pKi: −log10 of the molar value. Counter-ions that a name gives are not always drawn. Like-named read-outs stand apart in the source and are kept apart here. Where only a bound is given, the exact number is not on record here.

Chain of purified human plasma kallikrein (P03952 391-638): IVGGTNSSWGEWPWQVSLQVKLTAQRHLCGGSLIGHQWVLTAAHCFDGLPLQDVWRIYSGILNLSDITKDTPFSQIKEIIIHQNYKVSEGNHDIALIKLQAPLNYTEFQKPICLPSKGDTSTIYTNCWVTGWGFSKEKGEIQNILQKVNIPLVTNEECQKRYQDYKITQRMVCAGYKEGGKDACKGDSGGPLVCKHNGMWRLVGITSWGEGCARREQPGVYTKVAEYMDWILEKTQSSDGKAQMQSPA
Chain of purified human plasma kallikrein (P03952 20-390 partner): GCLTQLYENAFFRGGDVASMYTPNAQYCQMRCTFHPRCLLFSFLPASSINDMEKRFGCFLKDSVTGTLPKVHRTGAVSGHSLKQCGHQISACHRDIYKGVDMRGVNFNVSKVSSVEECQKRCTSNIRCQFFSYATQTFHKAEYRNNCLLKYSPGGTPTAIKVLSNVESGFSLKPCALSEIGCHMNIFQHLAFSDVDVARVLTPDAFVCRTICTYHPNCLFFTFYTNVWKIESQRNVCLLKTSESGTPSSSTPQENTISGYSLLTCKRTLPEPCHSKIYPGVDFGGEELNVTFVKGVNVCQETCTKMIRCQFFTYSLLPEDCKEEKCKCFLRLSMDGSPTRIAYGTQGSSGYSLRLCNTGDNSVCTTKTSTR
Chain of purified human Factor XIa (P03951 388-625): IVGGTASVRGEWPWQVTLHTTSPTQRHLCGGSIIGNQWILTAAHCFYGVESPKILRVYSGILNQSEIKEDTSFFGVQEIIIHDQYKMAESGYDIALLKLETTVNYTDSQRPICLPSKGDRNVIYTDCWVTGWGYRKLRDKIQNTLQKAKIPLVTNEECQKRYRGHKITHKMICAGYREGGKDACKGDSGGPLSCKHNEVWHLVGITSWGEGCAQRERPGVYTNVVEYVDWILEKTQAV
Chain of purified human Factor XIa (P03951 19-387 partner): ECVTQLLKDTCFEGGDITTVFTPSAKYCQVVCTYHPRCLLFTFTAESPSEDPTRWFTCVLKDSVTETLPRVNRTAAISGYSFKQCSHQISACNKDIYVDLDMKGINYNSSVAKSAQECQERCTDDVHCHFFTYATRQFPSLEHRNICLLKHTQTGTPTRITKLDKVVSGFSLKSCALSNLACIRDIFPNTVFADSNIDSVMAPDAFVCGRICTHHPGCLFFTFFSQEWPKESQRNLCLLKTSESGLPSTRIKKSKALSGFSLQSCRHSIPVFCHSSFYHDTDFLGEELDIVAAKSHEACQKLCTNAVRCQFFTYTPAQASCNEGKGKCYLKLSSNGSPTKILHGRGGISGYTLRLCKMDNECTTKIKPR

For the compound `O=C(O)c1ccc(NC(=O)C2c3cccc(N4CCN(CC(F)(F)F)CC4)c3CCN2C(=O)c2cn(-c3cccc(Cl)c3F)nn2)cc1` (centres unmarked) [Example 229, 4-(2-(1-(3-Chloro-2-fluorophenyl)-1H-1,2,3-triazole-4-carbonyl)-5-(4-(2,2,2-trifluoroethyl)piperazin-1-yl)-1,2,3,4-tetrahydroisoquinoline-1-carboxamido) benzoic acid, TFA salt], the negative-log Ki (pKi) in assay [1] (measured at 37° C. (*)) was 6.91; in assay [2] (setting [3]), more than 8.30.

For the compound `O=C(O)c1ccc(NC(=O)C2c3cccc(N4CCN(C5COC5)CC4)c3CCN2C(=O)c2cn(-c3cccc(Cl)c3F)nn2)cc1` (centres unmarked) [Example 226, 4-(2-(1-(3-Chloro-2-fluorophenyl)-1H-1,2,3-triazole-4-carbonyl)-5-(4-(oxetan-3-yl)piperazin-1-yl)-1,2,3,4-tetrahydroisoquinoline-1-carboxamido)benzoic acid, TFA salt], the pKi was 8.12 in assay [1] (setting [4]) and more than 8.30 in assay [2] (setting [3]).

For the compound `O=C(O)c1ccc2cc(NC(=O)C3c4cccc(-c5cncnc5)c4CCN3C(=O)c3cn(-c4cccc(Cl)c4F)nn3)ccc2n1` (centres unmarked) [Example 129, 6-(2-(1-(3-chloro-2-fluorophenyl)-1H-1,2,3-triazole-4-carbonyl)-5-(pyrimidin-5-yl)-1,2,3,4-tetrahydroisoquinoline-1-carboxamido) quinoline-2-carboxylic acid, TFA salt], the pKi is 7.47 in assay [1] (measured at 37° C. (*)) and more than 8.30 in assay [2] (setting [3]).

Turning to `O=C(O)c1ccc(NC(=O)C2c3cccc(OC4COC4)c3CCN2C(=O)c2cn(-c3cccc(Cl)c3F)nn2)cc1` (centres unmarked) [Example 123, 4-(2-(1-(3-Chloro-2-fluorophenyl)-1H-1,2,3-triazole-4-carbonyl)-5-(oxetan-3-yloxy)-1,2,3,4-tetrahydroisoquinoline-1-carboxamido)benzoic acid], the pKi in assay [1] (measured at 37° C. (*)) was 7.68; in assay [2] (setting [3]), 8.11.

In the case of `O=C(Nc1ccc(-c2ncc[nH]2)cc1)[C@H]1c2cccc(-c3cncnc3)c2CCN1C(=O)c1cn(-c2cccc(Cl)c2F)nn1` [Example 139, (R)-N-(4-(1H-Imidazol-2-yl)phenyl)-2-(1-(3-chloro-2-fluorophenyl)-1H-1,2,3-triazole-4-carbonyl)-5-(pyrimidin-5-yl)-1,2,3,4-tetrahydroisoquinoline-1-carboxamide, TFA salt], the pKi is less than 4.89 in assay [1] (measured at 37° C. (*)) and 6.87 in assay [2] (setting [3]).

With `O=C(O)c1ccc(NC(=O)C2c3cccc(Cl)c3CCN2C(=O)c2cn(-c3cccc(Cl)c3F)nn2)cc1` (centres unmarked) [Example 194, 4-(5-Chloro-2-(1-(3-chloro-2-fluorophenyl)-1H-1,2,3-triazole-4-carbonyl)-1,2,3,4-tetrahydroisoquinoline-1-carboxamido)benzoic acid], the results for the pKi in assay [1] (setting [4]) and in assay [2] were 7.38 and 7.24, respectively.

`Cc1c2c(nn1C)CCN(C(=O)c1cn(-c3cccc(Cl)c3F)nn1)C2C(=O)Nc1ccc(C(=O)O)cc1` (centres unmarked) [Example 222, 4-(5-(1-(3-Chloro-2-fluorophenyl)-1H-1,2,3-triazole-4-carbonyl)-2,3-dimethyl-4,5,6,7-tetrahydro-2H-pyrazolo[4,3-c]pyridine-4-carboxamido)benzoic acid]: the pKi in assay [1] (setting [4]) is 7.98; in assay [2] (setting [3]) it was 7.52.

With `CC(C)c1nnc2n1CCN(c1cccc3c1CCN(C(=O)[C@H]1CC(c4cccc(Cl)c4F)=NO1)[C@@H]3C(=O)Nc1ccc(C(=O)O)cc1)C2` [Example 336, 4-((S)-2-((R)-3-(3-Chloro-2-fluorophenyl)-4,5-dihydroisoxazole-5-carbonyl)-5-(3-isopropyl-5,6-dihydro-[1,2,4]triazolo[4,3-a]pyrazin-7(8H)-yl)-1,2,3,4-tetrahydroisoquinoline-1-carboxamido)benzoic acid, TFA salt], the values for the pKi in assay [1] (measured at 37° C. (*)) and in assay [2] (setting [3]) were 8.85 and more than 8.30, respectively.

In the case of `Cc1ncn(-c2cccc3c2CCN(C(=O)[C@H]2CC(c4cccc(Cl)c4F)=NO2)[C@H]3C(=O)Nc2ccc(C(=O)O)cc2)n1` [Example 251, 4-((R)-2-((R)-3-(3-Chloro-2-fluorophenyl)-4,5-dihydroisoxazole-5-carbonyl)-5-(3-methyl-1H-1,2,4-triazol-1-yl)-1,2,3,4-tetrahydroisoquinoline-1-carboxamido)benzoic acid, TFA salt], the negative-log Ki (pKi) in assay [1] (measured at 37° C. (*)) is 6.22; in assay [2] (setting [3]), 7.83.

Take `Nc1cccc2c1CCN(C(=O)c1cn(-c3cccc(Cl)c3F)nn1)C2C(=O)Nc1ccc(C(=O)O)cc1` (centres unmarked) [Example 334, 4-(5-Amino-2-(1-(3-chloro-2-fluorophenyl)-1H-1,2,3-triazole-4-carbonyl)-1,2,3,4-tetrahydroisoquinoline-1-carboxamido)benzoic acid, TFA salt]: the negative logarithm of the Ki (pKi) was 8.20 in assay [1] (setting [4]) and 7.97 in assay [2] (setting [3]).

As for `CO[C@@H]1CCN(c2cccc3c2CCN(C(=O)c2cn(-c4cccc(Cl)c4F)nn2)C3C(=O)Nc2ccc(C(=O)O)cc2)C1` (mixture of isomers) [Example 84, 4-(2-(1-(3-chloro-2-fluorophenyl)-1H-1,2,3-triazole-4-carbonyl)-5-((R)-3-methoxypyrrolidin-1-yl)-1,2,3,4-tetrahydroisoquinoline-1-carboxamido)benzoic acid, TFA salt], the pKi is 7.80 in assay [1] (setting [4]) and more than 8.30 in assay [2] (setting [3]).

Turning to `Cn1cnc(-c2cccc3c2CCN(C(=O)c2cn(-c4cccc(Cl)c4F)nn2)C3C(=O)Nc2ccc(C(=O)O)cc2)c1` (centres unmarked) [Example 246, 4-(2-(1-(3-Chloro-2-fluorophenyl)-1H-1,2,3-triazole-4-carbonyl)-5-(1-methyl-1H-imidazol-4-yl)-1,2,3,4-tetrahydroisoquinoline-1-carboxamido)benzoic acid, TFA salt], the pKi was 7.53 in assay [1] (measured at 37° C. (*)) and more than 8.30 in assay [2] (setting [3]).

With `CN(C)C1CCN(c2cccc3c2CCN(C(=O)c2cn(-c4cccc(Cl)c4F)nn2)C3C(=O)Nc2ccc(C(N)=O)cc2)CC1` (centres unmarked) [Example 99, N-(4-Carbamoylphenyl)-2-(1-(3-chloro-2-fluorophenyl)-1H-1,2,3-triazole-4-carbonyl)-5-(4-(dimethylamino)piperidin-1-yl)-1,2,3,4-tetrahydroisoquinoline-1-carboxamide, bis-TFA salt], the pKi in assay [1] (setting [4]) was 8.56; in assay [2] (setting [3]), more than 8.30.

`CN1CCC2(CCN(c3cccc4c3CCN(C(=O)c3cn(-c5cccc(Cl)c5F)nn3)C4C(=O)Nc3ccc(C(=O)O)cc3)CC2)C1=O` (centres unmarked) [Example 106, 4-(2-(1-(3-Chloro-2-fluorophenyl)-1H-1,2,3-triazole-4-carbonyl)-5-(2-methyl-1-oxo-2,8-diazaspiro[4.5]decan-8-yl)-1,2,3,4-tetrahydroisoquinoline-1-carboxamido)benzoic acid, TFA salt]: the values for the pKi in assay [1] (setting [4]) and in assay [2] (setting [3]) were 8.12 and more than 8.30, respectively.

Turning to `CN1CCN(c2cccc3c2CCN(C(=O)C2CC(c4cccc(Cl)c4F)=NO2)C3C(=O)Nc2ccc(C(=O)O)cc2)CC1=O` (single isomer, unassigned) [Example 283, 4-(2-(3-(3-chloro-2-fluorophenyl)-4,5-dihydroisoxazole-5-carbonyl)-5-(4-methyl-3-oxopiperazin-1-yl)-1,2,3,4-tetrahydroisoquinoline-1-carboxamido)benzoic acid, TFA salt], the pKi in assay [1] (measured at 25° C. (no asterisk), TFA salt) was 7.12; in assay [2] (read-out: Factor XIa Ki, measured at 25° C., TFA salt) it was 8.08.

In the case of `COC1CCN(c2cccc3c2CCN(C(=O)[C@H]2CC(c4cccc(Cl)c4F)=NO2)[C@@H]3C(=O)Nc2ccc(C(=O)O)cc2F)CC1` (single isomer, unassigned) [Example 243, TFA salt], the values for the negative logarithm of the Ki (pKi) in assay [1] (measured at 37° C. (*)) and in assay [2] were 7.42 and more than 8.30, respectively.

Source of the values: patent US9738655B2, “Tetrahydroisoquinolines containing substituted azoles as factor XIa inhibitors” (BRISTOL-MYERS SQUIBB COMPANY, priority 2013, dated 2017).
